Results reported in US11801232B2, “Targeting of ARID1A-deficient cancers by inhibiting de novo pyrimidine synthesis pathway” (YALE UNIVERSITY, priority 2019, dated 2023).

Key:
[1] = tested on: ES2 ARID1A-knockdown cells (shARID1A); assay: Cell growth after 72 h drug treatment, ARID1A-knockdown versus control cells; format: cell-based, human; conditions: 72 h treatment; compared to untransfected or shCon ES2 cells
Protocol: Short Hairpin RNA (shRNA)-Mediated Knockdown and Expression of ARID1A in ovarian and endometrial carcinoma cells. shRNA lentiviral supernatants were produced using standard protocols, as previously described^8. Vectors were transfected into HEK293FT cells using X-tremeGENE 9 DNA Transfection Reagent (from Roche). Retroviral supernatants isolated at 48 h were diluted 1:1 in culture medium and used to infect ARID1A-wildtype ES2 and KLE cell lines. Stably transfected subclones were expanded using puromycin (from Dot Scientific) drug selection. For expression of ARID1A in the ARID1A-mutant HEC-1-A cell line, pCIN4-HA-ARID1A was transfected using X-tremeGENE 9 DNA Transfection Reagent (from Roche), followed by selection with G418 (from Gibco). For expression of ARID1A in the ARID1A-mutant SKOV3 and OVISE cell lines, V5/His-tagged pLenti-puro-LacZ and pLenti-puro-ARID1A were transfected using lentivirus. […]
(§1) Cytotoxicity assay. […] Cell number was determined using a sulforhodamine B (SRB) assay, as previously described^23. […] After washing, protein-bound dye was solubilized with 10 mM unbuffered Tris-base solution (pH 10.5) and detected at 510 nm using a microplate reader. Percentage of cell-growth was calculated using the following formula: % cell growth=[(Absorbance sample)/(Absorbance untreated)]×100 […]

γ-H2AX = assay: Immunoblot and immunofluorescence of γ-H2AX in ES2 cells; format: cell-based, human; conditions: ARID1A-knockdown ES2 cells; teriflunomide 15 μM, AZD6738 1.5 μM, VX-970 0.075 μM; 24-72 h
Protocol: Immunoblot Analysis and Co-Immunoprecipitation Assay. For immunoblotting experiments, cells were lysed in BC200 lysis buffer [20 mM Tris-HCl (pH 7.5), 200 mM NaCl, 1 mM EDTA, 0.2% Nonidet P-40 (NP-40), freshly added complete protease inhibitor cocktail (from Roche), and PhosSTOP phosphatase inhibitor (from Roche)] or in boiling SDS lysis buffer [1% SDS and 10 mM Tris-CI (pH 7.5)], as previously described^21. Protein concentrations were quantified using a modified Lowry assay, and equal protein amounts were loaded onto a 10% SDS-PAGE gel and separated by gel electrophoresis, followed by transfer to a nitrocellulose membrane. The nitrocellulose membrane was stained with Ponceau S to confirm equal protein loading and then blocked in 2% BSA in Tris-buffered saline with 0.1% Tween-20 (tris buffered saline with tween, or TBST). Primary antibody incubation was done for 2 h at room temperature or, for phospho-specific antibodies, overnight at 4° C. An HRP-conjugated secondary antibody was used, followed by detection using enhanced chemiluminescence substrate (from Pierce). Autoradiograph images were scanned and saved as unmodified TIFF images, and densitometry analysis was done with ImageJ (from NIH) software.
Immunofluorescence. […] Images of cells were acquired using a BZ-X710 fluorescence microscope (from KEYENCE) and analyzed using ImageJ (from NIH).

[2] = tested on: ARID1A-knockout HCT116 cells; assay: Cell growth after 72 h drug treatment, ARID1A-knockout versus wild-type cells; format: cell-based, human; conditions: 72 h treatment; compared to ARID1A wild-type HCT116 control cells
Protocol: Cell Lines. Adherent cell lines were cultured in RPMI 1640 (from Gibco) supplemented with 10% fetal bovine serum (from Gibco) and 1% penicillin-streptomycin (from Gibco) at 37° C., 5% CO2. Low-passage-number cells were used, and all cell lines tested negative for mycoplasma using the MycoAlert Mycoplasma Detection Kit (from Lonza). The following ovarian and endometrial cancer cell lines were used: ES26, KLE5, SKOV3, OVISE (from JCRB Cell Bank), and HEC-1-A5 cells and their stably transfected subclones, as described below. Cell lines were authenticated using the GenePrint10 kit (form Promega) and matching to their original profiles (at ATCC). ARID1A protein expression status was confirmed by immunoblotting. HEK293FT cells were from Thermo Fisher Scientific. ARID1A-knockout HCT116 (homozygous truncating mutations, Q456*/Q456*) and ARID1A-wildtype HCT116 colorectal carcinoma cells were from Horizon Discovery.
as §1, with “assay. Cells were seeded in 96-well plates, with 2000 cells in 100 μL/well, and cultured for 24 h.” for “assay.”

ES2 shARID1A (a) cells = assay: Cytotoxicity (SRB) assay with CalcuSyn combination analysis; format: cell-based; conditions: Homo sapiens, Table 2, VX970 alone, read-out: Dm
Protocol: (§2) Short Hairpin RNA (shRNA)-Mediated Knockdown and Expression of ARID1A in ovarian and endometrial carcinoma cells. shRNA lentiviral supernatants were produced using standard protocols, as previously described^8. Vectors were transfected into HEK293FT cells using X-tremeGENE 9 DNA Transfection Reagent (from Roche). Retroviral supernatants isolated at 48 h were diluted 1:1 in culture medium and used to infect ARID1A-wildtype ES2 and KLE cell lines. Stably transfected subclones were expanded using puromycin (from Dot Scientific) drug selection. For expression of ARID1A in the ARID1A-mutant HEC-1-A cell line, pCIN4-HA-ARID1A was transfected using X-tremeGENE 9 DNA Transfection Reagent (from Roche), followed by selection with G418 (from Gibco). For expression of ARID1A in the ARID1A-mutant SKOV3 and OVISE cell lines, V5/His-tagged pLenti-puro-LacZ and pLenti-puro-ARID1A were transfected using lentivirus. Lentivirus was produced using HEK293FT cells with the second-generation packaging system pSPAX2 (Addgene plasmid) and pMD2.G (Addgene plasmid). Stably transfected subclones were expanded using puromycin and blasticidin (Gibco) drug selection.
(§3) Cytotoxicity assay. Cells were seeded in 96-well plates, with 2000 cells in 100 μL/well, and cultured for 24 h. The cells were treated with serial dilutions of drugs or without drug for an additional 72 h. Cell number was determined using a sulforhodamine B (SRB) assay, as previously described^23. Briefly, cells were fixed with 20% trichloroacetic acid (TCA), air-dried, and stained with 0.4% SRB dissolved in 1% acetic acid. After washing, protein-bound dye was solubilized with 10 mM unbuffered Tris-base solution (pH 10.5) and detected at 510 nm using a microplate reader. Percentage of cell-growth was calculated using the following formula: % cell growth=[(Absorbance sample)/(Absorbance untreated)]×100
(§4) Using CalcuSyn software (Biosoft), dose-effect curves were generated, and drug concentrations corresponding to a 50% decrease in cell number (IC50) were determined.
(§5) Drug concentrations corresponding to a median effect (Dm) are shown for each treatment; teriflunomide concentration is shown for combination (Combo) treatment at a 10:1 fixed molar ratio of two drugs, teriflunomide and AZD6738. […] Datasets from at least three independent experiments were combined, and each table cell contains the mean value±SD. SCR, ES2-shScrambled. N/A, not applicable. Statistical analysis was carried out by one-way ANOVA with Bonferroni's post-hoc test, and differences were considered significant at **P<0.01 and ***P<0.001 as compared to the ES2 parental group with the same drug treatment.
(§6) Drug concentrations (in μM for teriflunomide, in nM for […]) corresponding to median effect (Dm) are shown for each treatment; teriflunomide concentration is shown for combination (Combo) treatment at a 200:1 fixed molar ratio of the two drugs, teriflunomide and VX-970. […] CIwt<0.8, =0.8 to 1.2, and >1.2 indicates synergism, an additive effect, and antagonism, respectively. CIwt value was calculated using the formula: CIwt=(ED50+2ED75+3ED90)/6. Datasets from at least three independent experiments were combined, and each table cell contains the mean value±SD. Teri, teriflunomide. SCR, ES2-shScrambled. N/A, not applicable. Statistical analysis was carried out by one-way ANOVA with Bonferroni's post-hoc test, and differences were considered significant at ***P<0.001 as compared to the ES2 parental group with the same drug treatment.

ES2 shARID1A (b) cells = assay: as above; format: cell-based; conditions: Homo sapiens, Table 2, VX970 alone, read-out: Dm
Protocol: as §2, §3, §4, §5, §6

[3] = tested on: ES2-shScrambled (SCR) cells; assay: as above; format: cell-based; conditions: Homo sapiens, Table 2, VX970 alone, read-out: Dm
Protocol: as §2, §3, §4, §5, §6

ES2 cells = assay: as above; format: cell-based; conditions: Homo sapiens, ES-2, Table 2; ES2 parental; VX970 alone; read-out: Dm
Protocol: as §3, with “untreated)]×100 […] Datasets from at least three independent experiments were combined, and each table cell contains the mean value±SD. SCR, ES2-shScrambled. N/A, not applicable. Statistical analysis was carried out by one-way ANOVA with Bonferroni's post-hoc test, and differences were considered significant at **P<0.01 and ***P<0.001 as compared to the ES2 parental group with the same drug treatment. […] CIwt value was calculated using the formula: […] Datasets from at least three independent experiments were combined, and each table cell contains the mean value±SD. Teri, teriflunomide. SCR, ES2-shScrambled. N/A, not applicable. Statistical analysis was carried out by one-way ANOVA with Bonferroni's post-hoc test, and differences were considered significant at ***P<0.001 as compared to the ES2 parental group with the same drug treatment.” for “untreated)]×100”

| SMILES | Drug sensitivity of ARID1A-knockdown ES2 cells [1] | γ-H2AX protein levels (γ-H2AX) | Drug sensitivity of ARID1A-knockout HCT116 cells [2] | IC50 (ES2 shARID1A (a) cells) | IC50 (ES2 shARID1A (b) cells) | IC50 [3] | IC50 (ES2 cells) |
| --- | --- | --- | --- | --- | --- | --- | --- |
| CCc1cncnc1N1CCN(Cc2nc3ccc(C(F)(F)F)cc3[nH]2)CC1 [PF-4708671] | significantly hypersensitive |  |  |  |  |  |  |
| CNCc1ccc(-c2cc(-c3nc(-c4ccc(S(=O)(=O)C(C)C)cc4)cnc3N)on2)cc1 [VX-970] |  | increased | more sensitive | 54.3 ± 1.31 nM | 63.3 ± 10.4 nM | 170 ± 9.24 nM | 165 ± 3.84 nM |
